Experimental data published in patent US20120029187A1, “HALOALKYLSULFONANILIDE DERIVATIVE” (Nissan Chemical Industries, Ltd., priority 2009, published 2012).

Assays:
Type in all cases: in vivo
bulrush [1] = assay: Test Example 2: herbicidal effects during the vegetation period under submerged conditions; conditions: treatment during the vegetation period under submerged conditions; dose 2.52 g/a
How it was run: (§1)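 Barnyardgrass, bulrush and ducksalad were co-sown in alluvial soil flooded to 4 cm and grown in a greenhouse at 25 to 30° C. At the 1- or 2-leaf stage, water-diluted emulsifiable concentrates went onto the water surface at set doses (g/a). Herbicidal effect was scored three weeks later on a graded scale.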

barnyardgrass [2] = assay: as above; conditions: treatment during the vegetation period under submerged conditions; dose 2.52 g/a
How it was run: as §1

ducksalad [3] = assay: as above; conditions: treatment during the vegetation period under submerged conditions; dose 2.52 g/a
How it was run: as §1

posumbu knotweed [4] = assay: Test Example 4: herbicidal effect in foliage treatment; conditions: dose 3.2 g/a
How it was run: (§2)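 Herbicidal effect was rated on an evaluation scale three weeks after treatment. Plants had been raised 14 days at 25 to 30° C in sterilized diluvial soil, then received foliar sprays of emulsifiable concentrate diluted in water at predetermined doses expressed as g per are.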

common chickweed [5] = assay: as above; conditions: dose 3.2 g/a
How it was run: as §2

common ragweed [6] = assay: as above; conditions: dose 3.2 g/a
How it was run: as §2

water foxtail [7] = assay: as above; conditions: dose 3.2 g/a
How it was run: as §2

velvetleaf [8] = assay: as above; conditions: dose 3.2 g/a
How it was run: as §2

giant foxtail [9] = assay: as above; conditions: dose 3.2 g/a
How it was run: as §2

barnyardgrass [10] = assay: as above; conditions: dose 3.2 g/a
How it was run: as §2

redroot pigweed [11] = assay: as above; conditions: dose 3.2 g/a
How it was run: as §2

common lambsquater [12] = assay: as above; conditions: dose 3.2 g/a
How it was run: as §2

Italian ryegrass [13] = assay: as above; conditions: dose 3.2 g/a
How it was run: as §2

large crabgrass [14] = assay: as above; conditions: dose 3.2 g/a
How it was run: as §2

posumbu knotweed [15] = assay: Test Example 3: herbicidal effects in soil treatment; conditions: dose 3.2 g/a
How it was run: (§3)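 Seeds were sown in sterilized diluvial soil and covered with about 1.5 cm of soil. Compounds, formulated as emulsifiable concentrates and diluted with water, were sprayed evenly over the soil surface at set doses in g/a. Herbicidal effect was scored on a rating scale three weeks later.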

common chickweed [16] = assay: as above; conditions: dose 3.2 g/a
How it was run: as §3

common ragweed [17] = assay: as above; conditions: dose 3.2 g/a
How it was run: as §3

water foxtail [18] = assay: as above; conditions: dose 3.2 g/a
How it was run: as §3

velvetleaf [19] = assay: as above; conditions: dose 3.2 g/a
How it was run: as §3

giant foxtail [20] = assay: as above; conditions: dose 3.2 g/a
How it was run: as §3

barnyardgrass [21] = assay: as above; conditions: dose 3.2 g/a
How it was run: as §3

redroot pigweed [22] = assay: as above; conditions: dose 3.2 g/a
How it was run: as §3

common lambsquater [23] = assay: as above; conditions: dose 3.2 g/a
How it was run: as §3

Italian ryegrass [24] = assay: as above; conditions: dose 3.2 g/a
How it was run: as §3

large crabgrass [25] = assay: as above; conditions: dose 3.2 g/a
How it was run: as §3

beadstraw = assay: as above; conditions: dose 3.2 g/a
How it was run: as §3

transplanted rice = assay: Test Example 1: preemergence treatment under submerged conditions, effect on crop; conditions: dose 2.52 g/a
How it was run: (§4)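 Alluvial soil flooded to 4 cm depth; barnyardgrass, bulrush and ducksalad sown and 2.5-leaf rice seedlings transplanted. Same day, water-diluted emulsifiable concentrates applied to the water surface at set doses (g/a). Kept at 25–30 °C in greenhouse; effects scored 0–5 by mortality after three weeks.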

bulrush [26] = assay: Test Example 1: herbicidal effects in preemergence treatment under submerged conditions; conditions: dose 2.52 g/a
How it was run: as §4

barnyardgrass [27] = assay: as above; conditions: dose 2.52 g/a
How it was run: as §4

ducksalad [28] = assay: as above; conditions: dose 2.52 g/a
How it was run: as §4

[29] = three weeks after the application

Structure (SMILES)	B: bulrush, herbicidal effect (evaluation scale 0-5) (bulrush [1])	A: barnyardgrass, herbicidal effect (evaluation scale 0-5) (barnyardgrass [2])	C: ducksalad, herbicidal effect (evaluation scale 0-5) (ducksalad [3])	M: posumbu knotweed, herbicidal effect (evaluation scale 0-5) (posumbu knotweed [15])	N: common chickweed, herbicidal effect (evaluation scale 0-5) (common chickweed [16])	J: common ragweed, herbicidal effect (evaluation scale 0-5) (common ragweed [17])	G: water foxtail, herbicidal effect (evaluation scale 0-5) (water foxtail [18])	I: velvetleaf, herbicidal effect (evaluation scale 0-5) (velvetleaf [19])	E: giant foxtail, herbicidal effect (evaluation scale 0-5) (giant foxtail [20])	A: barnyardgrass, herbicidal effect (evaluation scale 0-5) (barnyardgrass [21])	K: redroot pigweed, herbicidal effect (evaluation scale 0-5) (redroot pigweed [22])	L: common lambsquater, herbicidal effect (evaluation scale 0-5) (common lambsquater [23])	H: Italian ryegrass, herbicidal effect (evaluation scale 0-5) (Italian ryegrass [24])	D: large crabgrass, herbicidal effect (evaluation scale 0-5) (large crabgrass [25])	O: beadstraw, herbicidal effect (evaluation scale 0-5) (beadstraw)	a: transplanted rice, effect on crop (evaluation scale 0-5) (transplanted rice)	B: bulrush, herbicidal effect (evaluation scale 0-5) (bulrush [26])	A: barnyardgrass, herbicidal effect (evaluation scale 0-5) (barnyardgrass [27])	C: ducksalad, herbicidal effect (evaluation scale 0-5) (ducksalad [28])	also measured
O=C1CC2(CCCC2)OCN1Cc1ccccc1NS(=O)(=O)C(F)(F)F [II-64]	5 (mortality of 90% or above (nearly complete death))	5 (mortality of 90% or above (nearly complete death))	5 (mortality of 90% or above (nearly complete death))	5 (mortality of 90% or above (nearly complete death))	4 (mortality of at least 70% and less than 90%)	4 (mortality of at least 70% and less than 90%)	5 (mortality of 90% or above (nearly complete death))	3 (mortality of at least 40% and less than 70%)	5 (mortality of 90% or above (nearly complete death))	5 (mortality of 90% or above (nearly complete death))	4 (mortality of at least 70% and less than 90%)	5 (mortality of 90% or above (nearly complete death))	5 (mortality of 90% or above (nearly complete death))	5 (mortality of 90% or above (nearly complete death))	4 (mortality of at least 70% and less than 90%)	0 (mortality of less than 5% (almost ineffective))	5 (mortality of 90% or above (nearly complete death))	5 (mortality of 90% or above (nearly complete death))	5 (mortality of 90% or above (nearly complete death))	M: posumbu knotweed, herbicidal effect (posumbu knotweed [4]; three weeks after application): 3 (mortality of at least 40% and less than 70%); N: common chickweed, herbicidal effect (common chickweed [5]; three weeks after application): 4 (mortality of at least 70% and less than 90%); J: common ragweed, herbicidal effect (common ragweed [6]; three weeks after application): 3 (mortality of at least 40% and less than 70%); G: water foxtail, herbicidal effect (water foxtail [7]; three weeks after application): 5 (mortality of 90% or above (nearly complete death)); I: velvetleaf, herbicidal effect (velvetleaf [8]; three weeks after application): 1 (mortality of at least 5% and less than 20%); E: giant foxtail, herbicidal effect (giant foxtail [9]; three weeks after application): 4 (mortality of at least 70% and less than 90%); A: barnyardgrass, herbicidal effect (barnyardgrass [10]; three weeks after application): 4 (mortality of at least 70% and less than 90%); K: redroot pigweed, herbicidal effect (redroot pigweed [11]; three weeks after application): 0 (mortality of less than 5% (almost ineffective)); L: common lambsquater, herbicidal effect (common lambsquater [12]; three weeks after application): 2 (mortality of at least 20% and less than 40%); H: Italian ryegrass, herbicidal effect (Italian ryegrass [13]; three weeks after application): 3 (mortality of at least 40% and less than 70%); D: large crabgrass, herbicidal effect (large crabgrass [14]; three weeks after application): 4 (mortality of at least 70% and less than 90%)
CCOC(=O)N(c1ccccc1CN1C(=O)CC(C)(C)OC1C)S(=O)(=O)C(F)(F)F (stereo not drawn) [II-74]	5 (mortality of 90% or above (nearly complete death))	5 (mortality of 90% or above (nearly complete death))	5 (mortality of 90% or above (nearly complete death))	5 (mortality of 90% or above (nearly complete death))	3 (mortality of at least 40% and less than 70%)	2 (mortality of at least 20% and less than 40%)	5 (mortality of 90% or above (nearly complete death))	5 (mortality of 90% or above (nearly complete death))	5 (mortality of 90% or above (nearly complete death))	5 (mortality of 90% or above (nearly complete death))	0 (mortality of less than 5% (almost ineffective))	1 (mortality of at least 5% and less than 20%)	4 (mortality of at least 70% and less than 90%)	5 (mortality of 90% or above (nearly complete death))	4 (mortality of at least 70% and less than 90%)	3 (mortality of at least 40% and less than 70%)	5 (mortality of 90% or above (nearly complete death))	5 (mortality of 90% or above (nearly complete death))	5 (mortality of 90% or above (nearly complete death))	M: posumbu knotweed, herbicidal effect (posumbu knotweed [4]; [29]): 4 (mortality of at least 70% and less than 90%); N: common chickweed, herbicidal effect (common chickweed [5]; [29]): 4 (mortality of at least 70% and less than 90%); J: common ragweed, herbicidal effect (common ragweed [6]; [29]): 3 (mortality of at least 40% and less than 70%); G: water foxtail, herbicidal effect (water foxtail [7]; [29]): 5 (mortality of 90% or above (nearly complete death)); I: velvetleaf, herbicidal effect (velvetleaf [8]; [29]): 5 (mortality of 90% or above (nearly complete death)); E: giant foxtail, herbicidal effect (giant foxtail [9]; [29]): 3 (mortality of at least 40% and less than 70%); A: barnyardgrass, herbicidal effect (barnyardgrass [10]; [29]): 5 (mortality of 90% or above (nearly complete death)); K: redroot pigweed, herbicidal effect (redroot pigweed [11]; [29]): 0 (mortality of less than 5% (almost ineffective)); L: common lambsquater, herbicidal effect (common lambsquater [12]; [29]): 3 (mortality of at least 40% and less than 70%); H: Italian ryegrass, herbicidal effect (Italian ryegrass [13]; [29]): 5 (mortality of 90% or above (nearly complete death)); D: large crabgrass, herbicidal effect (large crabgrass [14]; [29]): 5 (mortality of 90% or above (nearly complete death))
